Test results: patent US10973784B2, “Compositions and methods for treating Alzheimer's disease and Parkinson's disease” (Biotie Therapies, Inc., priority 2016, dated 2021)
Several values for one entry are separate records, joined by “and”; a condition that tells them apart may be missing. Identical values can stand only once. Like-named read-outs stand apart in the source and are kept apart here.

Columns and labels:
[1] = Pharmacokinetic analysis of SYN120 tablets, single oral dose (Example 8); type: in vivo, human; settings: for half-life / Tmax / AUC(0-t) / AUC(0-inf) / Cmax: human, plasma
Description: Pharmacokinetic (PK) analysis was performed on 42 subjects (36 males; 6 females) who received SYN120 oral tablets. In this study, subjects received a single oral dose of SYN120 at one of the following doses: 2 mg; 10 mg; 30 mg; 100 mg; 300 mg; and 600 mg. The SYN120 oral tablets used in this study were formulated for immediate release at tablet strengths of 2 mg, 10 mg, and 50 mg. The tablets were formulated using lactose monohydrate, corn starch, sodium starch glycolate, povidone, sodium lauryl sulfate, magnesium stearate, and the coating agent Opadry Yellow. Blood samples were collected at predose and 0.5, 1, 1.5, 2, 3, 4, 6, 8, 12, 16, 24, 32, 36, 48, and 72 hours postdose. During the treatments at 100 mg and higher, the protocol was amended to include an additional blood sample on Study Day 7 (nominal time of 151 hours). Following oral administration, SYN120 absorption was rapid and plasma levels were measurable in all subjects at the first time point (0.5 hours).
Table 14 below provides a summary of the mean PK parameters of plasma SYN120 for all doses.

[2] = target: T1, 5-HT2C receptor (Homo sapiens, UniProt P28335); settings: cited from earlier work
T1 sequence (P28335 33-458): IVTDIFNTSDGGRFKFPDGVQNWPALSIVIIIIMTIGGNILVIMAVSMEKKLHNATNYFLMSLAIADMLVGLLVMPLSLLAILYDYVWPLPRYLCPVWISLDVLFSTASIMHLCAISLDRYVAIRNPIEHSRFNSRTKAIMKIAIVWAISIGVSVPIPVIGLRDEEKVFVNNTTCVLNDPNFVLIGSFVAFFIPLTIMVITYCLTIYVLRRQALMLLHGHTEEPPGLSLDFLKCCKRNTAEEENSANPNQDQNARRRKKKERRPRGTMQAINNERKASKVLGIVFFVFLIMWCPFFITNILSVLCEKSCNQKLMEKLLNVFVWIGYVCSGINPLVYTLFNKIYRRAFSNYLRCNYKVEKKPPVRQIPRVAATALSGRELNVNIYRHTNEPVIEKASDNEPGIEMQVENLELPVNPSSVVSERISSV

[3] = female, oral, 100 mg single dose, females, arithmetic mean
[4] = female, single oral dose 100 mg (females), Cohort E, geometric mean
[5] = single oral dose 2 mg, Cohort A, geometric mean
[6] = single oral dose 10 mg, Cohort B, geometric mean
[7] = single oral dose 30 mg, Cohort C, geometric mean
[8] = single oral dose 300 mg, Cohort F, geometric mean
[9] = single oral dose 600 mg, Cohort G, geometric mean
[10] = male, oral, 100 mg single dose, males, arithmetic mean
[11] = male, single oral dose 100 mg (males), Cohort D, geometric mean
[12] = single oral dose 2 mg, Cohort A, arithmetic mean ±SD
[13] = single oral dose 10 mg, Cohort B, arithmetic mean ±SD
[14] = single oral dose 30 mg, Cohort C, arithmetic mean ±SD
[15] = single oral dose 100 mg (females), Cohort E, arithmetic mean ±SD
[16] = single oral dose 100 mg (males), Cohort D, arithmetic mean ±SD
[17] = single oral dose 300 mg, Cohort F, arithmetic mean ±SD
[18] = single oral dose 600 mg, Cohort G, arithmetic mean ±SD

In the case of `NC(=O)NC[C@@H]1CCCc2cc(S(=O)(=O)c3cccc(F)c3)ccc21` [SYN120], the half-life ([1]; both sexes, oral, range across single-dose treatment groups, read-out: mean apparent elimination half-life) is reported as 8.45 to 12.4 h, the Tmax ([1]; both sexes, oral, single doses of 100 mg and above, read-out: Tmax estimates) is reported as roughly 4 h and the AUC(0-t) ([1]; female, oral, 100 mg, 100 mg single dose, females, arithmetic mean, read-out: AUC0-24) is reported as 4670 ± 2990 ng·h/mL. It also gave an AUC(0-t) ([1]; female, oral, 100 mg, 100 mg single dose, females, arithmetic mean, read-out: AUC0-t) of 5960 ± 3650 ng·h/mL, an AUC(0-inf) [1, 3] of 5980 ± 3660 ng·h/mL and a Cmax [1, 3] of 532 ± 218 ng/mL. It also gave an AUC(0-t) ([1]; female, po, 100 mg, single oral dose 100 mg (females), Cohort E, geometric mean, read-out: AUC0-24) of 4000 ng·h/mL, an AUC(0-t) ([1]; female, po, 100 mg, single oral dose 100 mg (females), Cohort E, geometric mean, read-out: AUC0-t) of 5100 ng·h/mL and a half-life ([1]; female, single oral dose 100 mg (females), Cohort E, arithmetic mean ±SD, read-out: t1/2 (converted)) of 12.4 h. For the same compound, the AUC(0-inf) [1, 4] was 5120 ng·h/mL, the Cmax [1, 4] was 498 ng/mL and the Tmax ([1]; female, single oral dose 100 mg (females), Cohort E, median, read-out: Tmax) was 2.51 h. For the same compound, the half-life ([1]; oral, general statement, read-out: elimination half-life (t1/2)) was 8 to 12 h, the Tmax ([1]; oral, single dose 2 to 30 mg, on average, read-out: Tmax) was roughly 2 h and the AUC(0-t) ([1]; po, 2 mg, single oral dose 2 mg, Cohort A, geometric mean, read-out: AUC0-24) was 118 ng·h/mL. The AUC(0-t) ([1]; po, 2 mg, single oral dose 2 mg, Cohort A, geometric mean, read-out: AUC0-t) was 139 ng·h/mL, the AUC(0-t) ([1]; po, 10 mg, single oral dose 10 mg, Cohort B, geometric mean, read-out: AUC0-24) was 351 ng·h/mL and the AUC(0-t) ([1]; po, 10 mg, single oral dose 10 mg, Cohort B, geometric mean, read-out: AUC0-t) was 384 ng·h/mL. For the same compound, the AUC(0-t) ([1]; po, 30 mg, single oral dose 30 mg, Cohort C, geometric mean, read-out: AUC0-24) was 1540 ng·h/mL, the AUC(0-t) ([1]; po, 30 mg, single oral dose 30 mg, Cohort C, geometric mean, read-out: AUC0-t) was 1750 ng·h/mL and the AUC(0-t) ([1]; po, 300 mg, single oral dose 300 mg, Cohort F, geometric mean, read-out: AUC0-24) was 21300 ng·h/mL. For the same compound, the AUC(0-t) ([1]; po, 300 mg, single oral dose 300 mg, Cohort F, geometric mean, read-out: AUC0-t) was 27400 ng·h/mL, the AUC(0-t) ([1]; po, 600 mg, single oral dose 600 mg, Cohort G, geometric mean, read-out: AUC0-24) was 27600 ng·h/mL and the AUC(0-t) ([1]; po, 600 mg, single oral dose 600 mg, Cohort G, geometric mean, read-out: AUC0-t) was 42500 ng·h/mL. It also gave a half-life ([1]; single oral dose 2 mg, Cohort A, arithmetic mean ±SD, read-out: t1/2 (converted)) of 11.4 ± 5.11 h, an AUC(0-inf) [1, 5] of 146 ng·h/mL and a Cmax [1, 5] of 11.8 ng/mL. The Tmax ([1]; single oral dose 2 mg, Cohort A, median, read-out: Tmax) was 2.02 h, the half-life ([1]; single oral dose 10 mg, Cohort B, arithmetic mean ±SD, read-out: t1/2 (converted)) was 8.45 ± 2.31 h and the AUC(0-inf) [1, 6] was 389 ng·h/mL. The Cmax [1, 6] was 48.7 ng/mL, the Tmax ([1]; single oral dose 10 mg, Cohort B, median, read-out: Tmax) was 1.76 h and the half-life ([1]; single oral dose 30 mg, Cohort C, arithmetic mean ±SD, read-out: t1/2 (converted)) was 8.92 ± 1.39 h. The AUC(0-inf) [1, 7] was 1770 ng·h/mL, the Cmax [1, 7] was 179 ng/mL and the Tmax ([1]; single oral dose 30 mg, Cohort C, median, read-out: Tmax) was 2.26 h. It also gave a half-life ([1]; single oral dose 300 mg, Cohort F, arithmetic mean ±SD, read-out: t1/2 (converted)) of 9.58 ± 3.46 h, an AUC(0-inf) [1, 8] of 27400 ng·h/mL and a Cmax [1, 8] of 1730 ng/mL. It also gave a Tmax ([1]; single oral dose 300 mg, Cohort F, median, read-out: Tmax) of 3.53 h, a half-life ([1]; single oral dose 600 mg, Cohort G, arithmetic mean ±SD, read-out: t1/2 (converted)) of 12 ± 4.81 h and an AUC(0-inf) [1, 9] of 42900 ng·h/mL. For the same compound, the Cmax [1, 9] was 2080 ng/mL, the Tmax ([1]; single oral dose 600 mg, Cohort G, median, read-out: Tmax) was 4.51 h and the AUC(0-t) ([1]; male, oral, 100 mg, 100 mg single dose, males, arithmetic mean, read-out: AUC0-24) was 6470 ± 3330 ng·h/mL. The AUC(0-t) ([1]; male, oral, 100 mg, 100 mg single dose, males, arithmetic mean, read-out: AUC0-t) was 7980 ± 4800 ng·h/mL, the AUC(0-inf) [1, 10] was 8060 ± 4880 ng·h/mL and the Cmax [1, 10] was 623 ± 180 ng/mL. It also gave an AUC(0-t) ([1]; male, po, 100 mg, single oral dose 100 mg (males), Cohort D, geometric mean, read-out: AUC0-24) of 5870 ng·h/mL, an AUC(0-t) ([1]; male, po, 100 mg, single oral dose 100 mg (males), Cohort D, geometric mean, read-out: AUC0-t) of 7010 ng·h/mL and a half-life ([1]; male, single oral dose 100 mg (males), Cohort D, arithmetic mean ±SD, read-out: t1/2 (converted)) of 11 h. The AUC(0-inf) [1, 11] was 7060 ng·h/mL, the Cmax [1, 11] was 604 ng/mL and the Tmax ([1]; male, single oral dose 100 mg (males), Cohort D, median, read-out: Tmax) was 4 h. For the same compound, the CL/F [1, 12] was 18.8 ± 15.2 L/h, the Vs/F [1, 12] was 264 ± 191 L and the CL/F [1, 13] was 29.0 ± 15.0 L/h. It also gave a Vs/F [1, 13] of 379 ± 283 L, a CL/F [1, 14] of 19.2 ± 9.58 L/h and a Vs/F [1, 14] of 253 ± 149 L. The CL/F [1, 15] was 22.5 L/h and 22.5 ± 11.9 L/h, the Vs/F [1, 15] was 448 L and 448 ± 500 L and the CL/F [1, 16] was 15.8 L/h and 15.8 ± 7.56 L/h. For the same compound, the Vs/F [1, 16] was 227 L and 227 ± 94.2 L, the CL/F [1, 17] was 11.7 ± 4.81 L/h and the Vs/F [1, 17] was 154 ± 57.3 L. For the same compound, the CL/F [1, 18] was 15.7 ± 7.96 L/h, the Vs/F [1, 18] was 246 ± 97.6 L and the pKi [2] was 8.1.
